Data published in US20040248871A1, “Use of lysyl oxidase inhibitors for cell culture and tissue engineering” (priority 2001, published 2004).

Legend:
[1] = tested on: chondrocytes from the sternum of chicken embryos; experiment: Dedifferentiation of chicken embryo chondrocytes in two-dimensional culture on plastic (fluorography of 14C-proline labelled collagens, morphology); type: cell-based
Excerpt: a) The experimental chondrocyte culture model is the one with the culture of chicken embryo chondrocytes on plastic in two dimensions. The embryonic state of the cells allows a high level of synthesis of the collagens, unlike the adult chondrocytes. The chicken sternum from which the chondrocytes originates Makes it possible to obtain two pure sub-populations of chondrocytes capable or not capable of subsequently hypertrophying (respectively, the chondrocytes of the cranial or caudal section of the sternum). […] The results which are described always distinguish the sub-population of the chondrocytes studied.
The cultures with 4 mM L-glutamine antibiotics, and 25 μg/ml ascorbate (factor necessary for the stability of the secreted collagen triple helix units) are continued for 2 weeks in the presence or absence of 10% serum, optionally replaced by 100 ng/ml insulin, and by 50 μg/ml βAPN. The absence of serum necessitates the addition of protective agents (1 mM cysteine and 1 mM pyruvate). A day before taking the samples, 10 μCi of 14C Proline is added to the cultures the lawns or media of which are then pepsinated (0.2 mg pepsin/ml/pH 4/24 hours) and subjected to electrophoretic (SDS PAGE gradient of 4.5 at 15% acrylamide) then fluorographic analysis. The fluorographs then reveal the only pepsin-resistant protein bands, essentially the collagens and lipocalines (proteins with lipid transport). The known position of these bands allows the indication of the dedifferentiation of the cells by the appearance of the α2 I chain of collagen I associated with the lowering of the synthesis of the collagens of cartilage type.
βAPN (50 μg/ml) is added immediately upon inoculation, to the culture medium which is renewed every 2 days and applied to the cultures of chondrocytes as well as to those of fibroblasts then of keratinocytes during the formation of the reconstructed skin. […]

[2] = tested on: chondrocytes, fibroblasts, keratinocytes; experiment: Toxicity and multiplication of the cells in culture at the standard concentration; type: cell-based; conditions: 50 μg/ml
Procedure: (§1) βAPN (50 μg/ml) is added immediately upon inoculation, to the culture medium which is renewed every 2 days and applied to the cultures of chondrocytes as well as to those of fibroblasts then of keratinocytes during the formation of the reconstructed skin.

fibroblasts = experiment: Fibroblasts cultured in monolayer: cell count and MTT viability test; type: cell-based, human
Excerpt: (§2) The support of the reconstructed skin model is constituted by a dermal substrate (DS) with a base of collagen-glycosaminoglycan cross-linked by chitosan according to the technique published by Duplan-Perrat et al (J Invest Dermatol 2000 114:365). Fibroblasts are inoculated the inside of the DS in order to obtain an equivalent dermis. The reconstituted skin (RS) is obtained by inoculating the keratinocytes after 15 days (day 15) of culture in equivalent dermis. The dermal fibroblasts are obtained from explants of human prepuces after dermal-epidermal separation and cultured in monolayer in DMEM medium (Sigma) supplemented by 10% fœtal calf serum, 4 mM L-glutamine, EGF (Austral Biologic) at 10 ng/ml, penicillin at 100 UI/ml, gentamicin at 100 μg/ml and amphotericin B at 1 μg/ml. The keratinocytes are from a human skin biopsy sample after dermal-epidermal separation by trypsination. The cells are inoculated nutritive layers (irradiated fibroblasts) and cultured in DMEM and HAM F12 at 30% supplemented with fœetal calf serum at 10%, EGF at 10 ng/ml, hydrocortisone at 1.6 ng/ml, umulin at 0.12 UI/ml, choleratoxin at 0.1 nM, triiodothyronine at 0.2 μM, adenine at 24 μg/ml, 4 mM L-Glutamine, penicillin at 100 UI/ml, gentamicin at 100 μg/ml and amphotericin B at 1 μg/ml.
In fact, the number of these cells is reduced by approximately 50% compared to the control when they are cultured in the presence of 600 μg/ml of βAPN. […] The results of the MTT viability test confirm those of the cell count. […] It must be emphasized that βAPN at 200 μg/ml can optionally cause an increase in cell activity (proliferation and viability) on the fibroblasts inoculated at a low density, and on the fibroblasts and the keratinocytes inoculated at a high density.

[3] = tested on: reconstructed skin (fibroblasts and keratinocytes); experiment: Retraction (surface area) of reconstructed skins; type: cell-based, human; conditions: for surface area compared to the initial original surface area: 35 days of culture
Excerpt: (§3) The method allowing the formation of the reconstructed skin is that described in the French Patent 87-08252 of the 15th Jun. 1987.
as §2
A mixture with a base of bovine collagen of type I and III (72%), glycosaminoglycan (8%) cross-linked by chitosan (20%) is poured into 6-well plates. The dermal substrates thus obtained are then frozen at −80° C. and lyophilized. The fibroblasts are inoculated in the dermal substrate, rehydrated and sterilized at a rate of 250,000 cells per cm^2. Keratinocytes are inoculated after 15 days (day 15) at a density of 200,000 to 250,000 cells/cm^2. The reconstructed skins are cultured for 8 days in immersion, in the medium described previously supplemented with 50 μg/ml of vitamin C. Then the reconstructed skins are raised to the air-liquid interface using a simplified culture medium with a DMEM base, supplemented with fœtal calf serum, EGF, hydrocortisone, umulin, L-glutamine, penicillin, gentamicin, and amphotericin B, and ascorbic acid, at the concentrations described above. The reconstructed skins are cultured up to day 60. Samples are taken at day 30 and day 60 for the different analyses.
as §1

[4] = tested on: reconstructed skin (fibroblasts and keratinocytes); experiment: Histology, immunohistology and in situ hybridization of reconstructed skins; type: cell-based, human
Excerpt: as §3, §2
A mixture with a base of bovine collagen of type I and III (72%), glycosaminoglycan (8%) cross-linked by chitosan (20%) is poured into 6-well plates. The dermal substrates thus obtained are then frozen at −80° C. and lyophilized. The fibroblasts are inoculated in the dermal substrate, rehydrated and sterilized at a rate of 250,000 cells per cm^2. Keratinocytes are inoculated after 15 days (day 15) at a density of 200,000 to 250,000 cells/cm^2. The reconstructed skins are cultured for 8 days in immersion, in the medium described previously supplemented with 50 μg/ml of vitamin C. […]

## N#CCCN [βAPN, β-aminopropionitrile]
[1]; 50 μg/ml, after 2 weeks of culture
  effectiveness against dedifferentiation of the chondrocytes: total
[1]; 50 μg/ml, cranial chondrocytes, in the presence of serum, 2 weeks, 2D on plastic
  biochemical dedifferentiation of the chondrocytes (collagen I secreted, stopping of the synthesis of collagen X): totally inhibited
[1]; after 3 days of culture, in the presence of serum, media and cell lawns
  expression of collagen X by the hypertrophic (cranial) chondrocytes: allows the normal expression of collagen X
[2]
  toxicity for the cells: not toxic
fibroblasts; 200 μg/ml
  proliferation of the fibroblasts: slightly increased
fibroblasts; 200 μg/ml, isolated cultures
  effect on the viability and the multiplication: little effect
fibroblasts; 600 μg/ml
  reduction of the number of cells compared to the control: approximately 50%
fibroblasts; cell count and MTT
  concentration with inhibiting effect on proliferation: greater than 500 μg/ml
fibroblasts; up to 800 μg/ml
  toxic effect on cells at confluence: no toxic effect
[3]; 50 μg/ml
  surface area compared to the initial original surface area: 50%
[3]; 50 μg/ml, after two weeks at the air-liquid interface
  surface area compared to the non-treated control: do not show any significant difference
[3]; 200 μg/ml
  surface area compared to the initial original surface area: 40%
[3]; 500 μg/ml
  surface area compared to the initial original surface area: 40%
[3]; 500 μg/ml, immersed, before raising to the air-liquid interface
  reduction in surface area compared to original state: 17%
[3]; 200 or 500 μg/ml, after two weeks at the air-liquid interface
  surface area compared to that of the control: significantly greater surface area
[3]; skins still in immersed culture
  retraction compared to the control: significant dose-dependent reduction
[4]; 50 μg/ml or 200 μg/ml
  histology of the reconstructed skins: does not seem to be fundamentally changed
[4]; 50 μg/ml, dermis and epidermis
  detection of the LOX and LOXL genes by in situ hybridization: slight increase
[4]; dermis of reconstructed skin
  synthesis of extracellular matrix / colonization of the sponge by the fibroblasts: increased synthesis of ECM
